Laboratory results as given in publication PMC9029089, “1,5-Disubstituted Acylated 2-Amino-4,5-dihydroimidazoles as a New Class of Retinoic Acid Receptor–Related Orphan Receptor (ROR) Inhibitors” (International Journal of Molecular Sciences, 2022).

Assays:
Th17 cells = system: Th17 cells; parameters: method as in PMID 21441909, PMID 21499262, PMID 21566134; conditions: RORγ inverse agonists; cited from earlier work
[1] = system: experimental autoimmune encephalomyelitis mouse model; parameters: method as in PMID 21441909, PMID 21499262, PMID 21566134; conditions: EAE mouse model; cited from earlier work
RORγ = molecular target: T1, RORγ (Mus musculus, UniProt P51450); experiment: Gal4-RORγ-LBD UAS-luciferase reporter assay in TRex-CHO-K1 cells (doxycycline-stimulated); assay type: cell-based; conditions: individual controls 1295.201-307, 5 μg/ml, triplicate
T1 construct: mRORγ (Pro-261-end); expressed in transfected cells
T1 sequence (P51450 261-516 limits assumed): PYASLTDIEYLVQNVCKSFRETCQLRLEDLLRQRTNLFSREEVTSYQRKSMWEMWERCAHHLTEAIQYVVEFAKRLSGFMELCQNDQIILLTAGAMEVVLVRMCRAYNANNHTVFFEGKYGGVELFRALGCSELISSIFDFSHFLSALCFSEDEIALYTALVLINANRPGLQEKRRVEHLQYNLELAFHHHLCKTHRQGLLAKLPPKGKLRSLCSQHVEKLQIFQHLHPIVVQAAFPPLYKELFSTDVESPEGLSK

[2] = system: TRex-CHO-luciferase-RORγ cells; experiment: resazurin cell viability assay; assay type: cell-based; conditions: 5 µg/mL
Procedure: For screening FIU libraries, cells were resuspended in Ham’s F-12 assay medium containing 2% charcoal-treated FBS and no selection drugs. Ten thousand cells per well were seeded in 30 µL of assay medium in 384 white plates with clear bottom (Greiner). Cells were allowed to attach for 2 h, followed by compound treatment and stimulation with 20 ng/mL doxycycline for an additional 16–20 h. Appropriate solvent controls, negative controls with no doxycycline, and blanks with no cells were included in every plate. Prior to measuring luciferase activity, 6 µL of 0.15 mg/mL resazurin (Cayman Chemical) in PBS were added and cells were incubated for 1 h at 37 °C. Fluorescence intensity was detected at 545 nm excitation/590 nm emission using a CLARIOstar reader (BMGLabtech) as a measure of cell viability, to identify any potential cytotoxic effect of test compounds and mixtures. Following the resazurin assay, the medium was removed and 20 µL of BriteLite-Plus luciferase reagent (Perking Elmer) were added; luminescence was measured in a CLARIOstar reader using a 384 aperture spoon and a 0.1 sec measuring time interval.

SMILES: CC(=O)Nc1nc(C)c(S(=O)(=O)Nc2ccc(C(O)(C(F)(F)F)C(F)(F)F)cc2)s1 [SR1001]
- suppression of Th17 differentiation (Th17 cells): suppress Th17 differentiation
- suppression of the onset of disease [1]: suppress Th17 differentiation and the onset of disease

SMILES: O=C(Cc1ccccc1)NC1=NC[C@H](Cc2ccccc2)N1CCC12CC3CC(CC(C3)C1)C2 [1295.271]
- % Inhibition RORγ 5 μg/ml (RORγ): 36.0%
- toxicity as determined by a resazurin assay [2]: significant toxicity

SMILES: C[C@H]1O[C@@H](O[C@H]2[C@@H](O)C[C@H](O[C@H]3[C@@H](O)C[C@H](O[C@H]4CC[C@@]5(C)[C@H](CC[C@@H]6[C@@H]5C[C@@H](O)[C@]5(C)[C@@H](C7=CC(=O)OC7)CC[C@]65O)C4)O[C@@H]3C)O[C@@H]2C)C[C@H](O)[C@@H]1O [digoxin]
- suppression of Th17 differentiation (Th17 cells): suppress Th17 differentiation
- suppression of the onset of disease [1]: suppress Th17 differentiation and the onset of disease

SMILES: C[C@H]1[C@H](C)CC[C@]2(C(=O)O)CC[C@]3(C)C(=CC[C@@H]4[C@@]5(C)CC[C@H](O)C(C)(C)[C@@H]5CC[C@]43C)[C@H]12 [ursolic acid]
- suppression of Th17 differentiation (Th17 cells): suppress Th17 differentiation
- suppression of the onset of disease [1]: suppress Th17 differentiation and the onset of disease
